{
  "source": "patent EP0470323A2",
  "about": "“New salts of the nicotinic acid with aminobenzylic compounds and their pharmaceutical use” (BROMLEY LIMITED, priority 1990, dated 1992)",
  "key": {"[1]": {"test_system": "pl strain of Schiosaccharomyces Pombe", "test": "Frequency of mutations in yeast, with and without microsomal fraction", "format": "cell-based", "conditions": "tested dosages, with and without microsmial fraction", "description": "(§1) The compound according to the Example 1 has been tested, in order to check and see its mutagenic effects."}, "[2]": {"test_system": "HeLa human cells cultures", "test": "DNA repair synthesis (tritiated thymidine incorporation) in HeLa cell cultures", "format": "cell-based", "conditions": "vs controls treated with solvent, dosages tested", "description": "as §1"}, "[3]": {"test_system": "five strains of Typhumurium Salmonella", "test": "Mutagenic action of urines of intragastrically treated rats on Salmonella", "format": "cell-based", "conditions": "urines of rats treated intragastrically with two doses, with metabolic activation, beta-glucoronidase absent"}, "[4]": {"test_system": "Hypertriglyceridaemia caused by ethanole in the rats", "test": "Hypertriglyceridaemia caused by ethanol in rats, duration of the effects", "format": "in vivo", "conditions": "rat, dose 1 mM/kg/os", "description": "For this test group the methods described by Sistori C.R. and colleagues (Atherosclerosis 30, 45; 1978) is followed.\nThe hypertriglyceridaemia has been induced into the male rats having a body weight of 160 - 170 g by giving them to drink, for 4 consecutive days, a solution of 10% ethanole in water.\nIn order to perform the particular kinetics of the compound in accordance with the example 1 following the instant invention, it was considered appropriate, anyway, to evaluate the duration of the hypolipaemizing effect in comparison to that of the nicotinic acid.\nA group of normal animals was treated with the vehicle only and did serve as a negative control group."}, "[5]": {"test_system": "skin temperature of the mouse's paw", "test": "Peripheral vessel-dilating activity in the mouse (skin temperature of hind paws)", "format": "in vivo", "conditions": "for Temperature (°C) of the hind paws (n=10): intravenous; for Temperature (°C) of the hind paws: oral", "protocol": "The method of Richter W. (Acta Pharm. Toxicol. 21, 91; 1974) was used; it consists in determining, at fixed time intervals after the treatment, the skin temperature of the mouse's paw, by keeping the animals in rooms at a constant temperature of 21°C.\nSome groups of ten male mouses each have been used; the weight of each animal was 30 g approximately.\nThe compound according to the Example 1 has been tested \"per os\" at three basic levels of the doses (0,125 - 0,25 - 0,5 mM/kg) and by intravenous injection at two dose levels (0,015 and 0,03 mM/kg), in comparison with one sole dose of Papaverin and chlorhydrated Buflomedil (0,5 mM/kg \"per os\" and 0,03m M/kg intravenous). The observation of the skin temperature at the mouse's paw was made before the treatment, 30, 60 and 120 minutes after the \"per os\" treatment, […] (A-Hl Ellab) connected with an Ellab electric recorder. Of each animal the temperature of both hind paws has been measured, and the values obtained have been averaged ."}, "red cells in the rat": {"test_system": "red cells in the rat", "test": "Red cell adhesivity / filtration, Teitel method", "format": "in vivo", "conditions": "listed as Compound as Ex. 1", "description": "steresis (Teiltel P.: Nouv. Rev. Franç. Hématol. 7, 195, 1967). Any alteration, almost undoubtely at the level of the red cell's membrane, cause some damaging variations of the red cell's elasticity thus making more difficult the passing through the capillary vessels having more reduced diameter, and therefore increasing the flow resistance in the peripheral vessels systems. In order to determine the effect caused by the compound according to the Example 1, on these features of the red cell, the method described by Schmidt, Schonbein and colleagues (Blut 26, 369, 1973) has been used.\nIn the circulatory flow, the above mentioned capillary vessels being excluded, the blood cells do normally circulate being attached between each other because of their adhesiveness. In order to study this adhesion force, the above mentioned Teitel method has been used. Male rats of 150 g body weight approximately have been employed, and they have been treated for three consecutive days with 0,5 mM/kg/os of the compound according to the Example 1, or otherwise Buflomedil, or even Pentosiphillin used as comparison substance. After the last treatment the animals, without eating from 18 hours, have been killed in a light ethereal anaesthesy and the blood was collected over an 0,2 molar EDTA (9 and 1 volumes respectively). The red cells filtering possibility, measured with the Teitel method, wherein the quantity of red cells passing, in high haematocritical conditions, through a paper filter with holes of 20-40 µm in a previously determined time, has been ascertained as follows: the blood was centrifuged for ten minutes at 2000 rpm in order to obtain the massing of the red cells, two ml of the blood collected as above were put into an upside down turned cone made with filtering paper, being previously wetted with a physiological solution. The volume passing through the filter in 2 - 4 - 8 and 16 minutes is then measured. The average filtration time T 1/2 is reckoned on semi-logarithmic paper by putting on the abscissae the logarithm of the time, and on the ordinates the percentage of blood filtered. In order to follow the Schmidt Schönbein method, the here after described proceeding has been performed: 0,2 ml of a suspension of red cells at 2% obtained by diluting the blood with the autological plasma, then it was placed into an appropriate device permitting to filter this blood through a filter (millipores) of 5 µm mashes at a filtration pressure of 50 mm water. With a chronometer one determines the time required for the passage of the whole sample through the filter.\nAt time same time, one measures, in the same conditions, the same parameter for a plasma sample. One calculates then the relative filtration time by dividing the time required to filter the diluted blood sample by the time being necessary to filter the plasma sample. For each group the average and the standard error of the individual data obtained was reckoned. The statistical evaluation was obtained by means of the Dunnett test."}},
  "data": [
    {"smiles": "COc1cc(OC)c(C(=O)CCCN2CCCC2)c(OC)c1", "note": "[Example 1, 4-(1 pyrrholydinyl)-1-(2,4,6 trimethoxypheniyl)-1-nicotinized butanone]", "values": [
      {"measurement": "frequency of mutations", "setting": "[1]", "result": "did not increase"},
      {"measurement": "quantity of tritium-added Thymidine included into the DNA of the cells (repair synthese)", "setting": "[2]", "result": "did not determine any variation"},
      {"measurement": "mutagenic action", "setting": "[3]", "result": "any mutagenic action did not result"},
      {"measurement": "% variation vs positive controls (Trigliceridi)", "setting": "[4]; 4 h", "result": "-38,2%"},
      {"measurement": "Trigliceridi", "setting": "[4]; 4 h from the last treatment", "result": "158,9 ± 11,6 mg/100 ml"},
      {"measurement": "% variation vs positive controls (Trigliceridi)", "setting": "[4]; 6 h", "result": "-42,6%"},
      {"measurement": "Trigliceridi", "setting": "[4]; 6 h from the last treatment", "result": "135,6 ± 10,9 mg/100 ml"},
      {"measurement": "% variation vs positive controls (Trigliceridi)", "setting": "[4]; 12 h", "result": "-31,5%"},
      {"measurement": "Trigliceridi", "setting": "[4]; 12 h from the last treatment", "result": "141,0 ± 21,1 mg/100 ml"},
      {"measurement": "% variation vs positive controls (Trigliceridi)", "setting": "[4]; 16 h", "result": "-22,1%"},
      {"measurement": "Trigliceridi", "setting": "[4]; 16 h from the last treatment", "result": "145,3 ± 12,7 mg/100 ml"},
      {"measurement": "% variation vs positive controls (Trigliceridi)", "setting": "[4]; 24 h", "result": "-9,2%"},
      {"measurement": "Trigliceridi", "setting": "[4]; 24 h from the last treatment", "result": "150,1 ± 8,4 mg/100 ml"},
      {"measurement": "Temperature (°C) of the hind paws (n=10)", "setting": "[5]; dose 0,015 mM/kg/iv, 0 minutes (before the treatment)", "result": "24,3 ± 0,25 °C"},
      {"measurement": "Temperature (°C) of the hind paws (n=10)", "setting": "[5]; dose 0,015 mM/kg/iv, 30 minutes from the treatment", "result": "25,9 ± 0,18 °C"},
      {"measurement": "Temperature (°C) of the hind paws (n=10)", "setting": "[5]; dose 0,015 mM/kg/iv, 60 minutes from the treatment", "result": "25,8 ± 0,30 °C"},
      {"measurement": "Temperature (°C) of the hind paws (n=10)", "setting": "[5]; dose 0,015 mM/kg/iv, 120 minutes from the treatment", "result": "25,4 ± 0,22 °C"},
      {"measurement": "Temperature (°C) of the hind paws (n=10)", "setting": "[5]; dose 0,030 mM/kg/iv, 0 minutes (before the treatment), listed as Compound according to the Ex.1", "result": "24,2 ± 0,20 °C"},
      {"measurement": "Temperature (°C) of the hind paws (n=10)", "setting": "[5]; dose 0,030 mM/kg/iv, 30 minutes from the treatment, listed as Compound according to the Ex.1", "result": "26,7 ± 0,31 °C"},
      {"measurement": "Temperature (°C) of the hind paws (n=10)", "setting": "[5]; dose 0,030 mM/kg/iv, 60 minutes from the treatment, listed as Compound according to the Ex.1", "result": "26,5 ± 0,27 °C"},
      {"measurement": "Temperature (°C) of the hind paws (n=10)", "setting": "[5]; dose 0,030 mM/kg/iv, 120 minutes from the treatment, listed as Compound according to the Ex.1", "result": "26,3 ± 0,30 °C"},
      {"measurement": "Temperature (°C) of the hind paws", "setting": "[5]; dose 0,125 mM/kg/os, 0 minutes (before the treatment)", "result": "24,3 ± 0,24 °C"},
      {"measurement": "Temperature (°C) of the hind paws", "setting": "[5]; dose 0,125 mM/kg/os, 30 minutes from the treatment", "result": "24,7 ± 0,32 °C"},
      {"measurement": "Temperature (°C) of the hind paws", "setting": "[5]; dose 0,125 mM/kg/os, 60 minutes from the treatment", "result": "024,9 ± 0,30 °C"},
      {"measurement": "Temperature (°C) of the hind paws", "setting": "[5]; dose 0,125 mM/kg/os, 120 minutes from the treatment", "result": "25,2 ± 0,35 °C"},
      {"measurement": "Temperature (°C) of the hind paws", "setting": "[5]; dose 0,250 mM/kg/os, 0 minutes (before the treatment)", "result": "24,7 ± 0,20 °C"},
      {"measurement": "Temperature (°C) of the hind paws", "setting": "[5]; dose 0,250 mM/kg/os, 30 minutes from the treatment", "result": "25,2 ± 0,44 °C"},
      {"measurement": "Temperature (°C) of the hind paws", "setting": "[5]; dose 0,250 mM/kg/os, 60 minutes from the treatment", "result": "25,8 ± 0,32 °C"},
      {"measurement": "Temperature (°C) of the hind paws", "setting": "[5]; dose 0,250 mM/kg/os, 120 minutes from the treatment", "result": "25,5 ± 0,50 °C"},
      {"measurement": "Temperature (°C) of the hind paws", "setting": "[5]; dose 0,500 mM/kg/os, 0 minutes (before the treatment), listed as Compound according to the Example 1", "result": "24,6 ± 0,25 °C"},
      {"measurement": "Temperature (°C) of the hind paws", "setting": "[5]; dose 0,500 mM/kg/os, 30 minutes from the treatment, listed as Compound according to the Example 1", "result": "26,8 ± 0,30 °C"},
      {"measurement": "Temperature (°C) of the hind paws", "setting": "[5]; dose 0,500 mM/kg/os, 60 minutes from the treatment, listed as Compound according to the Example 1", "result": "27,5 ± 0,40 °C"},
      {"measurement": "Temperature (°C) of the hind paws", "setting": "[5]; dose 0,500 mM/kg/os, 120 minutes from the treatment, listed as Compound according to the Example 1", "result": "27,2 ± 0,45 °C"},
      {"measurement": "Teitel method T1/2 min. M ± E.S.", "setting": "red cells in the rat; dose 3 x 0,5 mM/kg/os (three consecutive days)", "result": "2,26 ± 0,21 min."},
      {"measurement": "Teitel method Δ % vs contr.", "setting": "red cells in the rat; dose 3 x 0,5 mM/kg/os", "result": "37,9%"}
    ]}
  ]
}
